Tests used:
KRAS (G12D) = biological target: T1, KRAS (G12D) (Homo sapiens, UniProt P01116, G12D); assay: KRAS (G12D) cellular degradation assay in AsPC-1 cells; type: cell-based; conditions: 24 hours, antibody fluorescence (Odyssey CLX), DC50 half-maximal degradation concentration
T1 construct: in-cell western with KRAS G12D antibody after 24 h
How it was run: (§1)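 AsPC-1 cells: for degradation, grown to ~90% confluency, treated 24 h with 1:3 compound series ([…] to 1.5 nM), then fixed and immunostained for KRAS G12D and β-actin, read by infrared fluorescence, DC50 fitted. Proliferation: 3,500 cells/well, 6-day treatment, CellTiter Glo luminescence, IC50 fitted.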

AsPC-1 cells = assay: AsPC-1 cell proliferation assay (CellTiter Glo); type: cell-based; conditions: 6 days
How it was run: as §1

T1 sequence (P01116 1-188 isoform P01116-2 G12D): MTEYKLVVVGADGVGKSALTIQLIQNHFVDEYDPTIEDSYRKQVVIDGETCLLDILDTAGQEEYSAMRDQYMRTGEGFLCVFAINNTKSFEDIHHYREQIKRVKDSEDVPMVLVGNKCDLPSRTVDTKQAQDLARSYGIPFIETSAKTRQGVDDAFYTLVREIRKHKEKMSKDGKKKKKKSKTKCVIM

SMILES	DC50 (KRAS (G12D)) [nM]	IC50 (AsPC-1 cells; Homo sapiens, ASPC1, 144 h) [nM]	IC50 (AsPC-1 cells) [nM]
CCn1nccc1-c1ccc([C@@H](NC(=O)[C@@H]2C[C@@H](O)CN2C(=O)[C@H](C(C)C)n2cc(-c3ccc(COc4c(-c5c(C)c(F)cc6[nH]ncc56)c(C5CC5)cc5c(N6C[C@@H]7C[C@H]6CN7)nc(O[C@H]6C[C@H](OC)C6)nc45)cc3)nn2)[C@@H](C)O)cc1 [Example 131, (2S,4R)-1-((2S)-2-(4-(4-(((4-((1S,4S)-2,5-diazabicyclo[2.2.1]heptan-2-yl)-6-cyclopropyl-7-(6-fluoro-5-methyl-1H-indazol-4-yl)-2-((1r,3S)-3-methoxycyclobutoxy)quinazolin-8-yl)oxy)methyl)phenyl)-1H-1,2,3-triazol-1-yl)-3-methylbutanoyl)-N-((1R,2R)-1-(4-(1-ethyl-1H-pyrazol-5-yl)phenyl)-2-hydroxypropyl)-4-hydroxypyrrolidine-2-carboxamide]	< 10	< 10	
CO[C@@H](C)COc1nc(N2C[C@@H]3C[C@H]2CN3)c2cc(C3CC3)c(-c3c(C)c(F)cc4[nH]ncc34)c(OCc3ccc(-c4cn([C@H](C(=O)N5C[C@H](O)C[C@H]5C(=O)N[C@H](C#Cc5cccc6scnc56)CO)C(C)C)nn4)cc3)c2n1 [Example 80]	10 to 100	10 to 100	
CCn1nccc1-c1ccc([C@@H](NC(=O)[C@@H]2C[C@@H](O)CN2C(=O)[C@H](C(C)C)n2cc(-c3ccc(COc4c(-c5c(C)c(F)cc6[nH]ncc56)c(C5CC5)cc5c(N6C[C@@H]7C[C@H]6CN7)nc(O[C@H]6C[C@H](OC)C6)nc45)cc3)nn2)[C@H](C)O)cc1F [Example 195, (2S,4R)-1-((2S)-2-(4-(4-(((4-((1S,4S)-2,5-diazabicyclo[2.2.1]heptan-2-yl)-6-cyclopropyl-7-(6-fluoro-5-methyl-1H-indazol-4-yl)-2-((1r,3S)-3-methoxycyclobutoxy)quinazolin-8-yl)oxy)methyl)phenyl)-1H-1,2,3-triazol-1-yl)-3-methylbutanoyl)-N-((1R,2S)-1-(4-(1-ethyl-1H-pyrazol-5-yl)-3-fluorophenyl)-2-hydroxypropyl)-4-hydroxypyrrolidine-2-carboxamide]	< 10	< 10	
CCn1nccc1-c1ccc([C@@H](NC(=O)[C@@H]2C[C@@H](O)CN2C(=O)[C@H](C(C)C)n2cc(-c3ccc(COc4c(-c5c(C)c(F)cc6[nH]ncc56)c(C5CC5)cc5c(N6C[C@@H]7C[C@H]6CN7)nc(OC[C@H](C)OC)nc45)cc3)nn2)C(C)O)cc1 (stereo in doubt) [Example 75, (2S,4R)-1-((2S)-2-(4-(4-(((4-((1S,4S)-2,5-diazabicyclo[2.2.1]heptan-2-yl)-6-cyclopropyl-7-(6-fluoro-5-methyl-1H-indazol-4-yl)-2-((S)-2-methoxypropoxy)quinazolin-8-yl)oxy)methyl)phenyl)-1H-1,2,3-triazol-1-yl)-3-methylbutanoyl)-N-((1R,2R)-1-(4-(1-ethyl-1H-pyrazol-5-yl)phenyl)-2-hydroxypropyl)-4-hydroxypyrrolidine-2-carboxamide]	< 10	< 10	
CO[C@@H](C)COc1nc(N2C[C@H]3C[C@@H]2CN3)c2cc(C3CC3)c(-c3c(C)c(F)cc4[nH]ncc34)c(OCc3ccc(-c4cn([C@H](C(=O)N5C[C@H](O)C[C@H]5C(=O)N[C@@H](C)c5ccc(-c6scnc6C)cc5)C(C)C)nn4)cc3)c2n1 (single isomer, unassigned) [Example 3A]	< 10		10 to 100

More lines, now with the values ahead:

DC50 (KRAS (G12D)) [nM]	IC50 (AsPC-1 cells; Homo sapiens, ASPC1, 144 h) [nM]	IC50 (AsPC-1 cells) [nM]	SMILES
< 10	< 10		CCn1nccc1-c1ccc([C@H](CO)NC(=O)[C@@H]2C[C@@H](O)CN2C(=O)[C@H](C(C)C)n2cc(-c3ccc(COc4c(-c5c(C)c(F)cc6[nH]ncc56)c(C5CC5)cc5c(N(C)[C@H]6CCNC6)nc(OC[C@H](C)OC)nc45)cc3)nn2)c2c1CC2 [Example 169, (2S,4R)-1-((2S)-2-(4-(4-(((6-cyclopropyl-7-(6-fluoro-5-methyl-1H-indazol-4-yl)-2-((S)-2-methoxypropoxy)-4-(methyl((S)-pyrrolidin-3-yl)amino)quinazolin-8-yl)oxy)methyl)phenyl)-1H-1,2,3-triazol-1-yl)-3-methylbutanoyl)-N—((R)-1-(5-(1-ethyl-1H-pyrazol-5-yl)bicyclo[4.2.0]octa-1(6),2,4-trien-2-yl)-2-hydroxyethyl)-4-hydroxypyrrolidine-2-carboxamide]
< 10	< 10		CCn1nccc1-c1ccc([C@@H](NC(=O)[C@@H]2C[C@@H](O)CN2C(=O)[C@H](C(C)C)n2cc(-c3ccc(COc4c(-c5c(C)c(F)cc6[nH]ncc56)c(C5CC5)cc5c(N6C[C@@H]7C[C@H]6CN7)nc(OC6CCC7(CC6)COC7)nc45)cc3)nn2)[C@@H](C)O)cc1 [Example 130, (2S,4R)-1-((2S)-2-(4-(4-(((2-((2-oxaspiro[3.5]nonan-7-yl)oxy)-4-((1S,4S)-2,5-diazabicyclo[2.2.1]heptan-2-yl)-6-cyclopropyl-7-(6-fluoro-5-methyl-1H-indazol-4-yl)quinazolin-8-yl)oxy)methyl)phenyl)-1H-1,2,3-triazol-1-yl)-3-methylbutanoyl)-N-((1R,2R)-1-(4-(1-ethyl-1H-pyrazol-5-yl)phenyl)-2-hydroxypropyl)-4-hydroxypyrrolidine-2-carboxamide]
10 to 100	< 10		CCn1nccc1-c1ccc([C@H](CO)NC(=O)[C@@H]2C[C@@H](O)CN2C(=O)[C@H](C(C)C)n2cc(-c3ccc(COc4c(-c5c(C)c(F)cc6[nH]ncc56)c(C5CC5)cc5c(N6CCOCC(C)(O)C6)nc(OC[C@H](C)OC)nc45)cc3)nn2)cc1 (stereo partly drawn) [Example 161, (2S,4R)-1-((2S)-2-(4-(4-(((6-cyclopropyl-7-(6-fluoro-5-methyl-1H-indazol-4-yl)-4-(6-hydroxy-6-methyl-1,4-oxazepan-4-yl)-2-((S)-2-methoxypropoxy)quinazolin-8-yl)oxy)methyl)phenyl)-1H-1,2,3-triazol-1-yl)-3-methylbutanoyl)-N—((R)-1-(4-(1-ethyl-1H-pyrazol-5-yl)phenyl)-2-hydroxyethyl)-4-hydroxypyrrolidine-2-carboxamide]
10 to 100	10 to 100		CCn1nccc1C12CC(CNC(=O)[C@@H]3C[C@@H](O)CN3C(=O)[C@H](C(C)C)n3cc(-c4ccc(COc5c(-c6c(C)c(F)cc7[nH]ncc67)c(C6CC6)cc6c(N7C[C@@H]8C[C@H]7CN8)nc(OC[C@H](C)OC)nc56)cc4)nn3)(C1)C2 [Example 81, (2S,4R)-1-((2S)-2-(4-(4-(((4-((1S,4S)-2,5-diazabicyclo[2.2.1]heptan-2-yl)-6-cyclopropyl-7-(6-fluoro-5-methyl-1H-indazol-4-yl)-2-((S)-2-methoxypropoxy)quinazolin-8-yl)oxy)methyl)phenyl)-1H-1,2,3-triazol-1-yl)-3-methylbutanoyl)-N-((3-(1-ethyl-1H-pyrazol-5-yl)bicyclo[1.1.1]pentan-1-yl)methyl)-4-hydroxypyrrolidine-2-carboxamide]
< 10	< 10		CCn1nccc1-c1ccc([C@H](CO)NC(=O)[C@@H]2C[C@@H](O)CN2C(=O)[C@H](C(C)C)n2cc(-c3ccc(COc4c(-c5c(C)c(F)cc6[nH]ncc56)c(C5CC5)cc5c(N6CCCNCC6)nc(OC[C@@H]6CCCO6)nc45)cc3)nn2)cc1 [Example 207, (2S,4R)-1-((2S)-2-(4-(4-(((6-cyclopropyl-4-(1,4-diazepan-1-yl)-7-(6-fluoro-5-methyl-1H-indazol-4-yl)-2-(((S)-tetrahydrofuran-2-yl)methoxy)quinazolin-8-yl)oxy)methyl)phenyl)-1H-1,2,3-triazol-1-yl)-3-methylbutanoyl)-N—((R)-1-(4-(1-ethyl-1H-pyrazol-5-yl)phenyl)-2-hydroxyethyl)-4-hydroxypyrrolidine-2-carboxamide]

From patent US20260295053A1, “COMPOUNDS FOR DEGRADATION AND INHIBITION OF KRAS (G12D) PROTEIN” (Shenzhen Ionova Life Science Co., Ltd., priority 2023, published 2026)
